From article PMC8563902, “N^1-methyladenosine methylation in tRNA drives liver tumourigenesis by regulating cholesterol metabolism” (Nature Communications, 2021)

Target: TRMT6/TRMT61A complex (Homo sapiens, UniProt Q96FX7+Q9UJA5)
Test: screen for block of TRMT6/TRMT61A interaction in vitro; m1A by LC-MS/MS in treated PLC/PRF/[…] cells
Format: cell-based
Details: blocks subunit interaction (method not described); m1A read in cells treated at the proliferation IC50

TRMT6/TRMT61A complex, sequence (Q96FX7 2-289): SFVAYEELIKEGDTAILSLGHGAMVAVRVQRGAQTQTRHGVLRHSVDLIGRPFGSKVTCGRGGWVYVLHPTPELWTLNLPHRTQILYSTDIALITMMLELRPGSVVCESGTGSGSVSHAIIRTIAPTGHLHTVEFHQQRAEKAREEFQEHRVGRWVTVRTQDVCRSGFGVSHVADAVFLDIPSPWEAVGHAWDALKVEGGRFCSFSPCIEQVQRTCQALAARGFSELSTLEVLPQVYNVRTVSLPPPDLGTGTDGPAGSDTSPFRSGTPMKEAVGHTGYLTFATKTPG
TRMT6/TRMT61A complex, sequence (Q9UJA5 whole entry): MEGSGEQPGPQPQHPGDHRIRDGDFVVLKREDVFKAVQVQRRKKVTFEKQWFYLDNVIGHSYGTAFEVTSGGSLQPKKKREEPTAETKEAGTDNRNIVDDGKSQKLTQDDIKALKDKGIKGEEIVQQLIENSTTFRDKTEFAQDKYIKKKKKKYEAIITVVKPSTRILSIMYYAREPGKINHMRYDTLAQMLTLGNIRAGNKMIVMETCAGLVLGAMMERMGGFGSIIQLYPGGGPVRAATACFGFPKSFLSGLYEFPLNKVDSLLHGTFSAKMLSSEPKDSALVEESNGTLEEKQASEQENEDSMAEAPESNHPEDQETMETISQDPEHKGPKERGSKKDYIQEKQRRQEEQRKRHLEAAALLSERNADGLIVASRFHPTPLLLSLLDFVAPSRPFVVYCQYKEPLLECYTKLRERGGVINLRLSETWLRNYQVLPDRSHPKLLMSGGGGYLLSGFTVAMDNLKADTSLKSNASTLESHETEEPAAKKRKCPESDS

`CN(C)C(=S)SSC(=S)N(C)C` [thiram] was tested, and the “screen for block of TRMT6/TRMT61A interaction in vitro; m1A by LC-MS/MS in treat” value was “thiram acts as an efficient inhibitor against TRMT6/TRMT61A complex”.
